ChEMBL document CHEMBL1201862, “PubChem BioAssay data set” (2004)
Several values for one entry are separate records, joined by “and”; a condition that tells them apart may be missing. Equal values may be shown once. Activity calls are given as the source filed them.

What was measured:
[1] = target: Luciferin 4-monooxygenase (Photinus pyralis, UniProt P08659); test: firefly luciferase enzyme inhibitors, dose response, biochemical, luminescence (AID 1891)
[2] = Luminescence Cell-Based Dose Confirmation HTS to Identify Inhibitors of Platelet Dense Granule Release. [Related pubchem assays: 1663 (Primary HTS), 1678 (Summary of Project)]; format: functional
Cytochrome P450 3A4 = Cytochrome P450 3A4 (Homo sapiens, UniProt P08684);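 further: CYP3A4 tested as one member of a cytochrome P450 panel screen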
Sequence of Cytochrome P450 3A4 (P08684 whole entry): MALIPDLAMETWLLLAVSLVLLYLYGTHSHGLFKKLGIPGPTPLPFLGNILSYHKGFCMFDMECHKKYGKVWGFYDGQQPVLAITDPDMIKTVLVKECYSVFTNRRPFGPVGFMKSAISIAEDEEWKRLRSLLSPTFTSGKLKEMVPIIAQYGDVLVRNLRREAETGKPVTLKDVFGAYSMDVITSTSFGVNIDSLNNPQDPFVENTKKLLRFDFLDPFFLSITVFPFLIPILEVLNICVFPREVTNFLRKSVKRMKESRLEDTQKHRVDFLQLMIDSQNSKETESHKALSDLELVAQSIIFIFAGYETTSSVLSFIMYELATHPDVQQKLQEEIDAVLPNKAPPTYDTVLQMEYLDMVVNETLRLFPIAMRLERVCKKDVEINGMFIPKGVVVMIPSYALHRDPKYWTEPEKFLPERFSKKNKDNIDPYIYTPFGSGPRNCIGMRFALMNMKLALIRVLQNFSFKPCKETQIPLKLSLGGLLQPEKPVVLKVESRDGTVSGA

[3] = tested on: Streptococcus sp. 'group A'; test: growth inhibition of control SK(-) GAS strain, dose response, counter-screen for streptokinase expression inhibitor project, luminescence, kanamycin, BacTiterGlo, confirmation (AID 1900); format: functional, organism-based
Streptococcus = test: Group A Streptococcus viability loss, dose response, counter-screen for streptokinase expression inhibitor project, luminescence, BacTiterGlo (AID 1915); format: functional, organism-based;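 further: potency for reduction of bacterial viability or growth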
Streptokinase A = target: T1, Streptokinase A (Streptococcus pyogenes serotype M1, UniProt P10520); test: S. pyogenes streptokinase expression inhibitors, potency, dose response, plasminogen activation absorbance, OD405 (AID 1914); format: functional, Streptococcus pyogenes M1 GAS;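 further: secreted streptokinase activity via plasminogen activation per viability signal from cell pellet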
T1 sequence (P10520 whole entry): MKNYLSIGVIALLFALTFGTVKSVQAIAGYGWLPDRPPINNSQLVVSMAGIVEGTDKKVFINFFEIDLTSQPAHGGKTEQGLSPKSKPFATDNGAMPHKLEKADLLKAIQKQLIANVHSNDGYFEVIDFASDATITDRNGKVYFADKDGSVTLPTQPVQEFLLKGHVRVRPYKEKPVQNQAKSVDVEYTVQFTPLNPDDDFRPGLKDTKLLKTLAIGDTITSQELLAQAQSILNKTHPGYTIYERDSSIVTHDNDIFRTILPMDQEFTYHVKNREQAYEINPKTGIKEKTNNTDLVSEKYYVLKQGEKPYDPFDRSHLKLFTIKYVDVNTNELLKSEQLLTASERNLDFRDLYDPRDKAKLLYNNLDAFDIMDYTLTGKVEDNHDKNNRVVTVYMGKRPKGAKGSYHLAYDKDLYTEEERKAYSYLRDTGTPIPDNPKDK

Cytochrome P450 2C9 = Cytochrome P450 2C9 (Homo sapiens, UniProt P11712)
Sequence of Cytochrome P450 2C9 (P11712 whole entry): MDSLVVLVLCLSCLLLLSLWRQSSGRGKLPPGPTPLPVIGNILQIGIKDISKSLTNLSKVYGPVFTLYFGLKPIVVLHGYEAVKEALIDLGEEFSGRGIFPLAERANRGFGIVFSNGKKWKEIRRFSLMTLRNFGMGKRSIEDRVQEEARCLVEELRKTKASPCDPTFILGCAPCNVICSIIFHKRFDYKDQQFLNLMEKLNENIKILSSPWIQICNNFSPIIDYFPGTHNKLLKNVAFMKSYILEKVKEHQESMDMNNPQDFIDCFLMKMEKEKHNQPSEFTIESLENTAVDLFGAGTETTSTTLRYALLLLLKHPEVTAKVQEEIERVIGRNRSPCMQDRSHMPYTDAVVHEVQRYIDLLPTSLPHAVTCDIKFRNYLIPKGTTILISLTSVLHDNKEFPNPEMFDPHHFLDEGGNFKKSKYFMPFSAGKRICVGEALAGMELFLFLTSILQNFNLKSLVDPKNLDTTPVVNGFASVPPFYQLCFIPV

Cytochrome P450 2C19 = Cytochrome P450 2C19 (Homo sapiens, UniProt P33261); test: Cytochrome panel assay with activity outcomes. Panel member name: p450-cyp2c19 Compounds with AC50 equal or less than 10 uM are considered active; format: functional
Sequence of Cytochrome P450 2C19 (P33261 whole entry): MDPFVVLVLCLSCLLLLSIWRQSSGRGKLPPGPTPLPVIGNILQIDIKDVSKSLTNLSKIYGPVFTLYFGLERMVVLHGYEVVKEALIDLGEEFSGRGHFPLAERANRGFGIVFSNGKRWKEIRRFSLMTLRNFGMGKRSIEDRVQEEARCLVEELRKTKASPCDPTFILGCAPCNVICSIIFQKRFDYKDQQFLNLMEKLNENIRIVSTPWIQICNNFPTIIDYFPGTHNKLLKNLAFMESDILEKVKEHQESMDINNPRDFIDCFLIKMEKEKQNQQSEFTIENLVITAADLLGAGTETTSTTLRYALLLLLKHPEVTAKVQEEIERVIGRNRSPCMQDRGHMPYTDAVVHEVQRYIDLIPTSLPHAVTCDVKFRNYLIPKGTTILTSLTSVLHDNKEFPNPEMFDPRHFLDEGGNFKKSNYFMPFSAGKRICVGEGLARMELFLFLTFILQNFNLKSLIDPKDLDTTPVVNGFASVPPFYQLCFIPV

INS1 = test: beta cell apoptosis inhibitors, cytokine rescue, dose response, luminescence, retest (AID 449756); format: functional, cell-based; settings: Rattus norvegicus;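 further: cell death triggered by IL-1 beta plus TNF-alpha plus IFN-gamma mixture; protective hits raise ATP signal compared with cytokine alone wells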
[4] = target: T2, Corticotropin-releasing factor receptor 2/Corticotropin-releasing factor-binding protein (Homo sapiens, UniProt P24387+Q13324); test: activators of CRF receptor 2 with binding protein – uHTS hits, confirmation (AID 602473); format: functional; settings: read-out: EC50_Mean
T2 sequence (Q13324 whole entry): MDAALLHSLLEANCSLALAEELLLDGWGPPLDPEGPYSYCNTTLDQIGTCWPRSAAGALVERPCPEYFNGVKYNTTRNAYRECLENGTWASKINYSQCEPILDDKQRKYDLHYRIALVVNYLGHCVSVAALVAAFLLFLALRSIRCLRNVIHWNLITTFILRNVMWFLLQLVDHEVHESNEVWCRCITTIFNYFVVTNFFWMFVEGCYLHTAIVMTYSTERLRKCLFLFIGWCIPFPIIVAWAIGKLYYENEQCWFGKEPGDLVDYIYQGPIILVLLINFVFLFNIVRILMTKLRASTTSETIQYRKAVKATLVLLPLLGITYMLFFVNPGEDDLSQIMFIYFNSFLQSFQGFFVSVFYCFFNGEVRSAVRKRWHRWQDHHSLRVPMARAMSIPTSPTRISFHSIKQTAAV
T2 sequence (P24387 whole entry): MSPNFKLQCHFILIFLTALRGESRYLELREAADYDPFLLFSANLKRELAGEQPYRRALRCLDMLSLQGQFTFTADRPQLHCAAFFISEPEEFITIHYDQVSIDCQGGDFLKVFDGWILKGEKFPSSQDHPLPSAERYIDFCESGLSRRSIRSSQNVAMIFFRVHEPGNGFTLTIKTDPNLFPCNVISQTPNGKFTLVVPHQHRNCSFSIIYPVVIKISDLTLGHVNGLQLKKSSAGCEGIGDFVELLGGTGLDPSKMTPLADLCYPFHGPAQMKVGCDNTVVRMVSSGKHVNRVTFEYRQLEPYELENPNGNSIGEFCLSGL

Cytochrome P450 2D6 = Cytochrome P450 2D6 (Homo sapiens, UniProt P10635);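 further: CYP2D6 member of a cytochrome P450 panel assay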
Sequence of Cytochrome P450 2D6 (P10635 whole entry): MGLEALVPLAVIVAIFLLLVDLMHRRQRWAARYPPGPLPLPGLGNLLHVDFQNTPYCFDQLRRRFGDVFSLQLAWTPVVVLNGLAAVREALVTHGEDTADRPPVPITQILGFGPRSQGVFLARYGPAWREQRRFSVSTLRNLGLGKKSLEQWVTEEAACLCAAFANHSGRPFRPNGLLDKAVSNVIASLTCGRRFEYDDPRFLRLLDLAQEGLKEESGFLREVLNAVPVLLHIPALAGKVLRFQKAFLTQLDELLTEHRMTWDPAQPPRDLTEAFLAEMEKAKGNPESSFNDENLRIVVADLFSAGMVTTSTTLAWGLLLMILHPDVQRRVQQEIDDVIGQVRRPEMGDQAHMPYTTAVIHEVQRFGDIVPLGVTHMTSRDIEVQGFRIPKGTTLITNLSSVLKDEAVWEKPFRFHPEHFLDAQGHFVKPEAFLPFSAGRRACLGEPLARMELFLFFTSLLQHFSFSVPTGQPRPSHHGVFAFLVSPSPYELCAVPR

[5] = inhibitors of intracellular T. cruzi replication, confirmation, NIH3T3 host cells, beta-gal luminescence (AID 2044); format: functional, cell-based;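 further: intracellular parasites grown in NIH/3T3 mouse fibroblasts as host cells; luminescent beta-galactosidase reporter signal from transgenic T. cruzi replicating inside host cells; inhibitors lower the luminescence signal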
[6] = cytotoxicity toward NIH3T3 fibroblasts, dose response, counter-screen, cell-based, ATP luminescence, mouse fibroblasts (AID 2010); format: functional;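 further: cells exposed to compound for about 90 hours before reading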

Sequence of Luciferin 4-monooxygenase (P08659 whole entry): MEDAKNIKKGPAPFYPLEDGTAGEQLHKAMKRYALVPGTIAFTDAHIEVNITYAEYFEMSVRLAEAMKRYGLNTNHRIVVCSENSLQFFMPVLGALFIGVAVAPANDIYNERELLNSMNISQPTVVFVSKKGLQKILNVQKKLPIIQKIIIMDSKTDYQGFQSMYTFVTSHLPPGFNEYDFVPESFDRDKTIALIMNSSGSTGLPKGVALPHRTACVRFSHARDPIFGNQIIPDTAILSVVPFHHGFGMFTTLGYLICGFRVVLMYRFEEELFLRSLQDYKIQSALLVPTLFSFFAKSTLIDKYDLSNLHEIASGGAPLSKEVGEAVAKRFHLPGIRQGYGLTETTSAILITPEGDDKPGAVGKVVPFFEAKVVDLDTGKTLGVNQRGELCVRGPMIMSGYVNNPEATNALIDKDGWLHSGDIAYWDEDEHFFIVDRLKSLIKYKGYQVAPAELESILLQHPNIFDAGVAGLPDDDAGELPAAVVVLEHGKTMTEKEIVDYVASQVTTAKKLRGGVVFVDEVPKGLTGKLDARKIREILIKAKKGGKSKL

Compound: Cc1ccc(/C=C/C(=O)Nc2ccccc2C(N)=O)cc1
- EC50 [1]: 3.26 µM (active)
- EC50 [2]: 22.3 µM (active)

Compound: CCCC[P+](CCCC)(CCCC)Cc1ccc(NC(=O)[C@@H](Cc2ccc3ccccc3c2)N=C(NC2CCCCC2)NC2CCCCC2)cc1
- AC50 (Cytochrome P450 3A4): 25.1 µM (inconclusive)

Compound: CCCCNC(=O)c1onc(CSc2ccc(C(C)C)cc2)c1C(=O)O
- EC50 [3]: 3.81 µM (active)
- EC50 (Streptococcus): > 150 µM (not active)
- EC50 (Streptokinase A): 2.28 µM (active)

Compound: COc1ccc2[nH]cc(CCNc3ccnc(-c4ccoc4)n3)c2c1
- AC50 (Cytochrome P450 2C9): 0.794 µM (inconclusive)

Compound: O=c1[nH]c(=S)[nH]nc1Cc1ccccc1
- AC50 (Cytochrome P450 2C9): 39.8 µM (inconclusive)
- AC50 (Cytochrome P450 2C19): inconclusive

Compound: O=C(CSc1nnc(NC(=O)c2cccc(F)c2)s1)NCC1CCCO1 (configuration not stated)
- EC50 [3]: > 150 µM (not active)
- EC50 (Streptococcus): > 150 µM (not active)
- EC50 (Streptokinase A): > 150 µM (not active)

Compound: COc1ccc(C2/C=C\CN(C(=O)C3CC3)[C@H](Cc3ccccc3)C(=O)N2Cc2ccc(F)cc2)cc1 (some centres not stated)
- AC50 (INS1): 13.5 µM (active)

Compound: CN=C(S)NNC(=O)c1sccc1OCc1ccc(C)cc1
- AC50 (Cytochrome P450 3A4): 15.8 µM (inconclusive)

Compound: O=C(Nc1nc(-c2ccccc2)cs1)c1ccc(Br)o1
- AC50 (Cytochrome P450 3A4): 31.6 µM (inconclusive)
- AC50 (Cytochrome P450 2C9): 11.2 µM (inconclusive)

Compound: CCOP(=O)(Cc1ccc(C(=O)CC)o1)OCC
- EC50 [3]: > 150 µM (not active)
- EC50 (Streptococcus): > 150 µM (not active)
- EC50 (Streptokinase A): > 150 µM (not active)

Compound: CC(=O)Nc1ccc(N2C(=O)CSC2c2c(F)cccc2Cl)cc1 (configuration not stated)
- AC50 (Cytochrome P450 3A4): 22.4 µM (inconclusive)
- AC50 (Cytochrome P450 2C19; read-out: AC50): 39.8 µM (inconclusive)

Compound: CCCCNC(=O)C(=O)NC(C)CCc1ccccc1 (configuration not stated)
- AC50 (Cytochrome P450 2C9): 17.8 µM (inconclusive)

Compound: COc1cccc([C@@H]2Oc3ccc(Br)cc3C(=O)[C@H]2O)c1
- AC50 (Cytochrome P450 3A4): 6.31 µM (inconclusive)

Compound: CCOC(=O)c1c(-c2ccc(C)o2)csc1NC(=O)COC(=O)c1ccc(NC(N)=O)cc1
- EC50 [3]: 1.75 µM (active)
- EC50 (Streptococcus): 68 µM (active)
- EC50 (Streptokinase A): 49.5 µM (active)

Compound: COc1cc(C[C@H](C)N)c(OC)cc1I
- AC50 (Cytochrome P450 3A4): 1.58 µM (inconclusive) and 31.6 µM (inconclusive)

Compound: CCc1cc2c(COC(=O)c3cccc(NS(C)(=O)=O)c3)cc(=O)oc2cc1O
- EC50 [3]: 6.8 µM (active)
- EC50 (Streptococcus): 100 µM (active)
- EC50 (Streptokinase A): > 150 µM (not active)

Compound: CCCn1nc2cc(C(=O)NCCc3ccc(C)cc3)ccc2c1OCC
- AC50 (Cytochrome P450 2C9): 39.8 µM (inconclusive)

Compound: CCOC(=O)C1CCCN(c2ncnc3c2cnn3-c2ccc(Cl)cc2)C1 (configuration not stated)
- AC50 (Cytochrome P450 3A4): 25.1 µM (inconclusive)
- EC50 [4]: > 53 µM (inactive)
- AC50 (Cytochrome P450 2C19; read-out: AC50): 22.4 µM (inconclusive)

Compound: O=C1NC(=O)/C(=C\c2ccc(OCc3ccccc3)cc2)S1
- EC50 [3]: 52.8 µM (active)
- EC50 (Streptococcus): > 150 µM (not active)
- EC50 (Streptokinase A): > 50 µM (not active)

Compound: Cc1ccc(S(=O)(=O)N2CCCCC2)cc1NC(=O)CN1C(=O)CN(C)C1=O
- EC50 [3]: > 150 µM (not active)
- EC50 (Streptococcus): > 150 µM (not active)
- EC50 (Streptokinase A): > 150 µM (not active)

Compound: Cc1cc(N)ccc1NC(=O)c1ccccc1
- AC50 (Cytochrome P450 2C9): 0.0224 µM (inconclusive)
- AC50 (Cytochrome P450 2C19; read-out: AC50): 20 µM (inconclusive)

Compound: CN(C)C(=O)c1ccc(-c2cncnc2-n2ccnc2)cc1
- AC50 (Cytochrome P450 3A4): 10 µM (inconclusive)
- AC50 (Cytochrome P450 2D6): 25.1 µM (inconclusive)

Compound: COc1ccc(-c2nc3cnc(OC)nc3n(Cc3cccs3)c2=O)cc1
- AC50 (Cytochrome P450 2C9): 5.01 µM (inconclusive)
- AC50 (Cytochrome P450 2D6): 7.94 µM (inconclusive)

Compound: CCN(CC)S(=O)(=O)c1ccc2c(c1)nc(CCC(=O)O)n2C
- EC50 [1]: > 112 µM (not active)
- EC50 [2]: > 112 µM (not active)

Compound: CCn1cc(CN2CCC(n3nccc3NC(=O)Cc3ccccc3)CC2)cn1
- EC50 [3]: > 150 µM (not active)
- EC50 (Streptococcus): > 150 µM (not active)
- EC50 (Streptokinase A): > 150 µM (not active)

Compound: Cc1cc(C)c(S(=O)(=O)N2CCCCC2)c(C)c1N(C)S(=O)(=O)c1ccccc1
- AC50 (Cytochrome P450 3A4): 1.12 µM (inconclusive)

Compound: Cc1c(NC(=O)/C=C/C(=O)O)cccc1[N+](=O)[O-]
- AC50 (Cytochrome P450 2C9): 28.2 µM (inconclusive)
- AC50 (Cytochrome P450 2C19; read-out: AC50): 15.8 µM (inconclusive)

Compound: Cc1noc(C)c1C(=O)Nc1ccc2ccccc2c1
- EC50 [3]: > 150 µM (not active)
- EC50 (Streptococcus): > 150 µM (not active)
- EC50 (Streptokinase A): > 150 µM (not active)

Compound: c1ccc(-n2c3ccccc3c3ccccc32)cc1
- EC50 [3]: 6.43 µM (active)
- EC50 (Streptococcus): > 150 µM (not active)
- EC50 (Streptokinase A): > 150 µM (not active)

Compound: O=C(NCC(=O)N(c1ccccc1)C(C(=O)NC1CCCC1)c1cccnc1)c1cccs1 (configuration not stated)
- AC50 (Cytochrome P450 2C9): 17.8 µM (inconclusive)
- AC50 (Cytochrome P450 2C19; read-out: AC50): 15.8 µM (inconclusive)

Compound: CCN(CC)CCn1c(=S)[nH]c2cc3c(cc2c1=O)OCO3
- AC50 (Cytochrome P450 3A4): 14.1 µM (inconclusive)
- AC50 (Cytochrome P450 2C19; read-out: AC50): 39.8 µM (inconclusive)

Compound: c1ccc(Nc2nc(-c3ccoc3)nc3ccccc23)cc1
- AC50 (Cytochrome P450 3A4): 20 µM (inconclusive)
- AC50 (Cytochrome P450 2D6): 39.8 µM (inconclusive)
- AC50 (Cytochrome P450 2C19; read-out: AC50): 31.6 µM (inconclusive)

Compound: O=C(NNC1=Nc2cccc3cccc1c23)c1ccc(Br)cc1
- EC50 [3]: 0.324 µM (active)
- EC50 (Streptococcus): 10.6 µM (active)
- EC50 [5]: 1.12 µM (active)
- EC50 (Streptokinase A): > 150 µM (not active)
- EC50 [6]: 6.29 µM (active)

Compound: CN(Cc1ccco1)c1nc(-c2cccc(C#N)c2)nc2ccccc12
- AC50 (Cytochrome P450 2C9): 1 µM (inconclusive)

Compound: COc1ccc(S(=O)(=O)Nc2ccc3oc(C)c(C(C)=O)c3c2)cc1
- AC50 (INS1): 6.13 µM (active)

Compound: Cc1cccc(C)c1NC(=O)C(c1ccccc1)N1CCC1=O (configuration not stated)
- AC50 (Cytochrome P450 3A4): 25.1 µM (inconclusive)
- AC50 (Cytochrome P450 2C19; read-out: AC50): 20 µM (inconclusive)

Compound: Cc1ccc(OCC(O)CNC(=O)c2ccccc2C(=O)O)cc1 (configuration not stated)
- AC50 (Cytochrome P450 2C9): 0.00562 µM (inconclusive)

Compound: O=C(CCCc1nc(-c2ccc(Cl)cc2)no1)NC1CCCC1
- AC50 (INS1): 10.2 µM (active)

Compound: Cc1ccc(CNC(=O)C2CCC(=O)N2C2CCCCC2)cc1 (configuration not stated)
- AC50 (Cytochrome P450 2C9): 7.08 µM (inconclusive)

Compound: CCCN1CCc2cc(O)cc3c2[C@H]1Cc1ccc(O)c(O)c1-3
- AC50 (Cytochrome P450 2C9): 39.8 µM (inconclusive)
- AC50 (Cytochrome P450 2D6): 15.8 µM (inconclusive)

Compound: Oc1oc(-c2ccccc2)nc1/C=N/c1ccccc1
- AC50 (Cytochrome P450 3A4): 25.1 µM (inconclusive)

Compound: COc1cccc(/C=N/NC(=O)C(=O)N/N=C/c2cccc(OC)c2OC)c1OC
- EC50 [1]: > 112 µM (not active)
- EC50 [2]: > 112 µM (not active)

Compound: Cc1cccc(CNc2ncnc3ccc(-c4ccc(C(=O)N(C)C)cc4)cc23)c1
- AC50 (Cytochrome P450 2C9): 0.794 µM (inconclusive)
- AC50 (Cytochrome P450 2D6): 25.1 µM (inconclusive)
- AC50 (Cytochrome P450 2C19; read-out: AC50): 39.8 µM (inconclusive)
